Assay results as given in patent US20250212889A1, “COMPOSITION CONTAINING BACILLUS AMYLOLIQUEFACIENS STRAIN FOR ENHANCING PLANT DISEASE RESISTANCE AND USE THEREOF” (CJ CHEILJEDANG CORPORATION, priority 2022, published 2025).

Columns and labels:
Format in all cases: in vivo
[1] = test system: soybeans; assay: Growth promoting ability, shoot weight of soybeans
Protocol: (§1) One week after sowing in pots, root zone treatment of each plant was performed using each 5 ml of BTH, valine, […] powder preparation, and the mixture of […] powder preparation and valine. The root zone treatment with BTH, valine, […] powder preparation, and the mixture of […] powder preparation and valine was performed twice at one week intervals, respectively. One week after the last treatment, a shoot of each treatment group was cut and weighed.

[2] = test system: cucumbers; assay: Growth promoting ability, shoot weight of cucumbers
Protocol: as §1

[3] = test system: Phytophthora sojae; assay: Mixed treatment pot experiment, soybean Phytophthora stem and root rot; details: soybeans, valine 0.05% in mixed treatment, compared to the untreated group
[4] = test system: Pseudomonas syringae pv. lachrymans; assay: Mixed treatment pot experiment, cucumber bacterial leaf blight; details: cucumbers, valine 0.05% in mixed treatment, compared to the untreated group
[5] = test system: Phytophthora sojae; assay: Mixed treatment glass greenhouse experiment, soybean Phytophthora stem and root rot; details: soybeans, compared to the untreated group
Protocol: The subject of the experiment was soybeans. Plant preparation, treatment with […] powder preparation and valine, and treatment of soybean Phytophthora stem and root rot were performed in the same manner as Example 7. […] The control value was calculated as follows. [formula]

[6] = test system: Pseudomonas syringae pv. tomato DC3000; assay: Induced resistance, population of pathogens in Arabidopsis thaliana leaves; details: Arabidopsis thaliana leaf disc, root zone treatment, 3 days after Pst inoculation
Protocol: To this end, Arabidopsis thaliana which is a plant model was used, and Pseudomonas syringae pv. tomato DC3000 (hereinafter, referred to as Pst) causing leaf spot was used as a pathogen. To grow the plant, the surface of seeds of Arabidopsis thaliana was sterilized by immersing the seeds in 3% sodium hypochlorite (NaOCI) for 5 minutes. Thereafter, the seeds were rinsed five times using sterile water and then sown in a pot, and cultured in a plant incubator (12-hour light and 23° C. temperature conditions) for 3 weeks, followed by root zone treatment with each 50 ml of benzothiadiazole (BTH), serenade, N351 strain, valine, and mixture of N351 strain and valine. 7 days after treatment, the pathogen was inoculated and the population of pathogens was examined 0 day and 3 days later. To examine the population of pathogens, the leaves were cut into 1 cm discs using a cork borer and placed in an e-tube containing 1 ml of sterile water and beads. The leaves were ground for 2 minutes at 6000 rpm using a homogenizer (Bertin), and the population of pathogens in the juice was examined.

[7] = test system: Pathogenesis-related protein (PR) 1a promoter GUS fusion construct; assay: Induced resistance, PR1a promoter GUS expression; details: Arabidopsis thaliana leaves, 0 to 3 days after disease treatment
[8] = root zone treatment 5 ml twice, one week after last treatment

Compound	growth compared to the untreated control group [1]	growth compared to the untreated control group [2]	control value [3]	control value [4]	control value [5]	population of pathogens [6]	GUS activity/expression (PR1a) [7]	shoot weight, average [1, 8]	growth further promoted compared to the untreated group ([1]; vs untreated group of 8.2 g)	shoot weight, average [2, 8]	growth further promoted compared to the untreated group ([2]; vs untreated group of 12.6 g)
CSC(=O)c1cccc2nnsc12 [BTH, benzo (1,2,3)-thiadiazile-7-carbothioic acid S-methyl ester, reference compound]	rather inhibited	growth inhibition	–	–	–	–	–	–	–	–	–
CC(C)[C@H](N)C(=O)O [valine]	–	–	36%	38%	24%	8 LogCFU/disc	most strongly induced 1 day after disease treatment, and expression became weaker over time	9.3 g	1.1 g	14 g	1.4 g
